Reference: paper PMC9504985, “Identification of Novel Aryl Carboxamide Derivatives as Death-Associated Protein Kinase 1 (DAPK1) Inhibitors with Anti-Proliferative Activities: Design, Synthesis, In Vitro, and In Silico Biological Studies” (Pharmaceuticals, 2022)

Each molecule was assayed against T1, Death-associated protein kinase 1 (DAPK1) (Homo sapiens, UniProt P53355) (assay: 10-dose kinase assay (Reaction Biology HotSpot)). Details: not given.
Type: biochemical

T1 sequence (P53355 whole entry): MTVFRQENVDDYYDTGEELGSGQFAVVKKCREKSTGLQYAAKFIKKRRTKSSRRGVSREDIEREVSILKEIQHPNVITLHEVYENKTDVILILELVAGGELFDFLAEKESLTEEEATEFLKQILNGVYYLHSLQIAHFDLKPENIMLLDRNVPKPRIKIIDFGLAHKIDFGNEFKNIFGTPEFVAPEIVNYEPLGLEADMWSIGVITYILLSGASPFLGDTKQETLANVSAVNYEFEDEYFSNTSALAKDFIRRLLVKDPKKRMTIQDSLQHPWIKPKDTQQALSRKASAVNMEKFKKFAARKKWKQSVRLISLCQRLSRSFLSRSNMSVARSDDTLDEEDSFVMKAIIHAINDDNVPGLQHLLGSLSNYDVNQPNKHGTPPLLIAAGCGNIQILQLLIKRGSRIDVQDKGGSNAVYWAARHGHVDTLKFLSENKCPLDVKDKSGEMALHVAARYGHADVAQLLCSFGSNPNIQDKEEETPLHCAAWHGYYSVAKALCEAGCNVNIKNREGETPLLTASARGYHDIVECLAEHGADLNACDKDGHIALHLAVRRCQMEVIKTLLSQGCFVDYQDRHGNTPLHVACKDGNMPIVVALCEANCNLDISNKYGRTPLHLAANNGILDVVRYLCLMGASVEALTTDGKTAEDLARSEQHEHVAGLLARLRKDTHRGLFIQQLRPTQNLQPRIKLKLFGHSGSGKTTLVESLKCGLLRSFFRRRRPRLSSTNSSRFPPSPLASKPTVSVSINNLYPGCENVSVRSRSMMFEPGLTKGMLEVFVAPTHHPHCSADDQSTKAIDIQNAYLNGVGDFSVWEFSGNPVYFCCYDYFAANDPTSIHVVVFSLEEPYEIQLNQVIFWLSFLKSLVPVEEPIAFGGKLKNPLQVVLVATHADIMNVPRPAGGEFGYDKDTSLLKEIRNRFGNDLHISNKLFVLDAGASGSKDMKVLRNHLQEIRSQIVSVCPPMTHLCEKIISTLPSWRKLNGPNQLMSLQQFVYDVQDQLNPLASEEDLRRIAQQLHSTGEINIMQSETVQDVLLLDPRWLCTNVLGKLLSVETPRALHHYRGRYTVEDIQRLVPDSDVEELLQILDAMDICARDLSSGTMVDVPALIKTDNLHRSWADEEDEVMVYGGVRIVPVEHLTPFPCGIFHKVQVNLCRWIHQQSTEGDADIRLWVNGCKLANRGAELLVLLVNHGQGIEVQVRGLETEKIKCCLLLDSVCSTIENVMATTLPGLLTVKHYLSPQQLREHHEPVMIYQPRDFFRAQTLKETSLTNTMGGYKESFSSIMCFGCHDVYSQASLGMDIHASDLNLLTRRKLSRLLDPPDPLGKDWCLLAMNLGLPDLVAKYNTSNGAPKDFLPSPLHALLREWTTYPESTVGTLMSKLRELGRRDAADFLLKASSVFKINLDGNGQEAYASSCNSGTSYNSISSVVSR

SMILES | IC50 [µM]
O=C(Nc1ccc(Oc2ccc(F)cc2)c(Cl)c1)c1ccccn1 [4h, N-(3-chloro-4-(4-fluorophenoxy)phenyl) picolinamide] | 6.81
O=C(Nc1ccc(Oc2ccc(F)cc2)c(Cl)c1)c1cccnc1 [4j, N-(3-chloro-4-(4-fluorophenoxy)phenyl) nicotinamide] | 1.7
O=C(Nc1ccc(Oc2ccc(F)cc2)c(Cl)c1)c1ccncc1 [4k, N-(3-chloro-4-(4-fluorophenoxy)phenyl) isonicotinamide] | 7.26
O=C(Nc1ccc(Oc2cccc(Cl)c2)c(Cl)c1)c1ccncc1 [4q, N-(3-chloro-4-(3-chlorophenoxy)phenyl) isonicotinamide] | 1.09

These molecules were tested against T1, Death-associated protein kinase 1 (DAPK1) (assay: single-dose kinase assay, % inhibition at […]). Details: read-out: % Inhibition against DAPK1 ^a.
Type: biochemical

SMILES | inhibition at 10 µM [%]
O=C(Nc1ccc(Oc2cccc(Cl)c2)c(Cl)c1)c1ccccn1 [4m, N-(3-chloro-4-(3-chlorophenoxy)phenyl) picolinamide] | 61.7
O=C(Nc1ccc(Oc2cccc(Cl)c2)c(Cl)c1)c1cccnn1 [4n, N-(3-chloro-4-(3-chlorophenoxy)phenyl) pyridazine-3-carboxamide] | 61.5
O=C(Nc1ccc(Oc2cccc(Cl)c2)c(Cl)c1)c1cccnc1 [4p, N-(3-chloro-4-(3-chlorophenoxy)phenyl) nicotinamide] | 61.5
O=C(Nc1ccc(Oc2cccc(Cl)c2)c(Cl)c1)c1ccnnc1 [4r, N-(3-chloro-4-(3-chlorophenoxy)phenyl) pyridazine-4-carboxamide] | 60
